Laboratory results taken from ChEMBL document CHEMBL5291721, “A preclinical secondary pharmacology resource illuminates target-adverse drug reaction associations of marketed drugs” (Nat Commun, 2023).

Assays:
[1] = biological target: T1, Peroxisome proliferator-activated receptor gamma (Homo sapiens, UniProt P37231); assay type: functional
T1 sequence (P37231 whole entry): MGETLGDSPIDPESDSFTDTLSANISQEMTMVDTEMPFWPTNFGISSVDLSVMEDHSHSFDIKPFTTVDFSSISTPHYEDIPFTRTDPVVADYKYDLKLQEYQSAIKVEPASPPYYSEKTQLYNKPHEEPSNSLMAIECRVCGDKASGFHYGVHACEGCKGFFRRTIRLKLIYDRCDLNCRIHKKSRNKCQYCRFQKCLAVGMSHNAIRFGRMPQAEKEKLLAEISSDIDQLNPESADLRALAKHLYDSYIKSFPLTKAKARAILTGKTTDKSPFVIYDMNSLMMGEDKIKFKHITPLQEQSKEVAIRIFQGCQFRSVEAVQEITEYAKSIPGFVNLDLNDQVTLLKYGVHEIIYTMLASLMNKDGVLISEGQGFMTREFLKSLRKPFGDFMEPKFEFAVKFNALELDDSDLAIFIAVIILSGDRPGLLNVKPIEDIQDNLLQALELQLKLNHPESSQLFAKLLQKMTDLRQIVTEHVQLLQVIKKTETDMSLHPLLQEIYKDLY

[2] = biological target: T1, Peroxisome proliferator-activated receptor gamma; assay type: functional; remark: listed apart in the source
D(1A) dopamine receptor = D(1A) dopamine receptor (Homo sapiens, UniProt P21728)
[3] = biological target: T2, Muscarinic acetylcholine receptor M1 (Homo sapiens, UniProt P11229)
T2 sequence (P11229 whole entry): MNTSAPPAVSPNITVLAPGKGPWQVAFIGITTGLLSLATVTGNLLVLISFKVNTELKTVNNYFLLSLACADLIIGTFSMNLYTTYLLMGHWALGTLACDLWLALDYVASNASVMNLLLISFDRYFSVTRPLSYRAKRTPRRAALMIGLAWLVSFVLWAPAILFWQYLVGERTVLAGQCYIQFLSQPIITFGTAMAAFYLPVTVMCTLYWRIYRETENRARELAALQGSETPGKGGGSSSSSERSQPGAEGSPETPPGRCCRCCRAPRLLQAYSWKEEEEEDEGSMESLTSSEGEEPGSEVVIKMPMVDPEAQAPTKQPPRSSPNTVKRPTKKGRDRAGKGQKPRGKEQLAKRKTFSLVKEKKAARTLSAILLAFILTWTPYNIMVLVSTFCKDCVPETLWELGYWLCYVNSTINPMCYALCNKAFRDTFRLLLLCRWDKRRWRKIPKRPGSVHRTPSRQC

[4] = biological target: T3, Alpha-1A adrenergic receptor (Homo sapiens, UniProt P35348)
T3 sequence (P35348 whole entry): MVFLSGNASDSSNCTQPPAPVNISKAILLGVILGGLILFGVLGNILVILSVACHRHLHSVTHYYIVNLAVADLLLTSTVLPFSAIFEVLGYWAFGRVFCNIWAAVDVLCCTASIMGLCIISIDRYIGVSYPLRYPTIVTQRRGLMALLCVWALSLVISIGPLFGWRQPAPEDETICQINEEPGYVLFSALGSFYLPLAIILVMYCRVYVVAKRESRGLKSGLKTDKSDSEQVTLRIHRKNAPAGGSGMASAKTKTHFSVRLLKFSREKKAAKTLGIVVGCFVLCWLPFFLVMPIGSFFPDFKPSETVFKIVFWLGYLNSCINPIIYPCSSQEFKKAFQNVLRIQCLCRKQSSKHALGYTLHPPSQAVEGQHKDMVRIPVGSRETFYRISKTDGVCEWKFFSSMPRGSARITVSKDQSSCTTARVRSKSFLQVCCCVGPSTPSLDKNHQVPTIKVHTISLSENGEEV

Histamine H1 receptor [5] = biological target: T4, Histamine H1 receptor (Homo sapiens, UniProt P35367); assay type: functional, cell-based
Histamine H1 receptor [6] = biological target: T4, Histamine H1 receptor; assay type: functional, cell-based; remark: listed apart in the source
[7] = biological target: 5-hydroxytryptamine receptor 2B (Homo sapiens, UniProt P41595)
[8] = biological target: T5, Alpha-2A adrenergic receptor (Homo sapiens, UniProt P08913)
T5 sequence (P08913 whole entry): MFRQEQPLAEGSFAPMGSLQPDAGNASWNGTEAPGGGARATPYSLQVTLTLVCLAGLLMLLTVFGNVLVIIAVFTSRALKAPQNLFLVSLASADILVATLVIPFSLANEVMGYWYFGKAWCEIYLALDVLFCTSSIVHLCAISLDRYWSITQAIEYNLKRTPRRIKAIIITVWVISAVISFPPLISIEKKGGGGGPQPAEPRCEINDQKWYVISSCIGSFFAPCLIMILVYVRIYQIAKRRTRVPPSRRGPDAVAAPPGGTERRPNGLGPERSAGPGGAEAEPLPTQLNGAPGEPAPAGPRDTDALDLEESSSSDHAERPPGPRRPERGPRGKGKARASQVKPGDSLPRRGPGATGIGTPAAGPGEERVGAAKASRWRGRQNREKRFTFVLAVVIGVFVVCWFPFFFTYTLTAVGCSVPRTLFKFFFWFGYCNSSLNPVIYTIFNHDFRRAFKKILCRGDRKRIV

[9] = biological target: T6, 5-hydroxytryptamine receptor 1A (Homo sapiens, UniProt P08908)
T6 sequence (P08908 whole entry): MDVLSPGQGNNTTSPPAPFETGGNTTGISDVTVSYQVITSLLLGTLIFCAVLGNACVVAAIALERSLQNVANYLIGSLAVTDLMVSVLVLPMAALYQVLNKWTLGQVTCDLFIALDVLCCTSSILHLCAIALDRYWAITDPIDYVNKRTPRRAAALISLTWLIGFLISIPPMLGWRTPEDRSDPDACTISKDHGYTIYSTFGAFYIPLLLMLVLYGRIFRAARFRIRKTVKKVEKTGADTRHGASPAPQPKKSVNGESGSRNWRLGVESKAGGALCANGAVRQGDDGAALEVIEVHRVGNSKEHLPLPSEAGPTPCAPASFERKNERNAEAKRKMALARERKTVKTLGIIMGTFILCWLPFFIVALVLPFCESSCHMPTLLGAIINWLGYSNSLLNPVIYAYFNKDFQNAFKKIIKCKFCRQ

[10] = biological target: Voltage-dependent N-type calcium channel subunit alpha-1B (Rattus norvegicus, UniProt Q02294); assay type: functional
[11] = biological target: Beta-3 adrenergic receptor (Homo sapiens, UniProt P13945)
[12] = biological target: T7, Gamma-aminobutyric acid receptor subunit alpha-1/alpha-2/beta-2/gamma-2 (Homo sapiens, UniProt P14867+P18507+P47869+P47870); assay type: functional, cell-based
[13] = biological target: T7, Gamma-aminobutyric acid receptor subunit alpha-1/alpha-2/beta-2/gamma-2; assay type: functional, cell-based; remark: listed apart in the source
Further: assay procedure not described here.

Chain of 5-hydroxytryptamine receptor 2B (P41595 whole entry): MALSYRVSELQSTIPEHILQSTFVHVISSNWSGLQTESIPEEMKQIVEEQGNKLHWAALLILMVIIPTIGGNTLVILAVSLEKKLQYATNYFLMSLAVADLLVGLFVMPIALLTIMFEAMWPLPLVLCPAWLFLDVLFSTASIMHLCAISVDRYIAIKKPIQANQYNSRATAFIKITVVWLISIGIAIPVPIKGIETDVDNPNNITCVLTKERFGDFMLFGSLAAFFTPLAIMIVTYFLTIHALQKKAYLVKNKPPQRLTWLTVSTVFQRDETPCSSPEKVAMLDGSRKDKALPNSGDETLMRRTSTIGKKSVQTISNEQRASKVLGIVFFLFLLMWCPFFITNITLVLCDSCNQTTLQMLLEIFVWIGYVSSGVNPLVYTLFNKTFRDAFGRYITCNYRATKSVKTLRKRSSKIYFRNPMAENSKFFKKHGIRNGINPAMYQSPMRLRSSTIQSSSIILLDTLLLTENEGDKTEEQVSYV
T4 sequence (P35367 whole entry): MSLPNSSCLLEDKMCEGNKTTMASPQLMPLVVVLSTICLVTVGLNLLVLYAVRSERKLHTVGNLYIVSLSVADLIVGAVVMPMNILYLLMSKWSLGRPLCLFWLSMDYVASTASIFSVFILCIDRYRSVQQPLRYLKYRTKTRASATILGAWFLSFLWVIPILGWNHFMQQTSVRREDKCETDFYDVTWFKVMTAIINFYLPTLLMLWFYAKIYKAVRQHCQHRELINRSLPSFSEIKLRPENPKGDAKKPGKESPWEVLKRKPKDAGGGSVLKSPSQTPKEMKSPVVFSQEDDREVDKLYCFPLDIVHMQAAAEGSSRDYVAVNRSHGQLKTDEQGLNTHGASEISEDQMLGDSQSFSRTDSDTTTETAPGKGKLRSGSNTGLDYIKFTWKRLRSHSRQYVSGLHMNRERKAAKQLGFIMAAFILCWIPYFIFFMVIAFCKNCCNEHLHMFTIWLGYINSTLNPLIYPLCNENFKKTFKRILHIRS
Chain of Beta-3 adrenergic receptor (P13945 whole entry): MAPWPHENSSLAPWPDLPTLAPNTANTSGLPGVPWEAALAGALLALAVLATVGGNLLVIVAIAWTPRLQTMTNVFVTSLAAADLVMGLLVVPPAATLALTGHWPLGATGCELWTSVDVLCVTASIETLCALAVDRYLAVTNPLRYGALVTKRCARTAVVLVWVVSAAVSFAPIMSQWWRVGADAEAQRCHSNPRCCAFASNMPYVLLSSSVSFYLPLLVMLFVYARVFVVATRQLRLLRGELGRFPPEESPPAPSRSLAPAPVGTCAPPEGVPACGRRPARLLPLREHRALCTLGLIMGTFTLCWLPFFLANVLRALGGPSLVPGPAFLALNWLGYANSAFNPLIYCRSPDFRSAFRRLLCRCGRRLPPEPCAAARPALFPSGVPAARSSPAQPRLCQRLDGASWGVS
Chain of Voltage-dependent N-type calcium channel subunit alpha-1B (Q02294 whole entry): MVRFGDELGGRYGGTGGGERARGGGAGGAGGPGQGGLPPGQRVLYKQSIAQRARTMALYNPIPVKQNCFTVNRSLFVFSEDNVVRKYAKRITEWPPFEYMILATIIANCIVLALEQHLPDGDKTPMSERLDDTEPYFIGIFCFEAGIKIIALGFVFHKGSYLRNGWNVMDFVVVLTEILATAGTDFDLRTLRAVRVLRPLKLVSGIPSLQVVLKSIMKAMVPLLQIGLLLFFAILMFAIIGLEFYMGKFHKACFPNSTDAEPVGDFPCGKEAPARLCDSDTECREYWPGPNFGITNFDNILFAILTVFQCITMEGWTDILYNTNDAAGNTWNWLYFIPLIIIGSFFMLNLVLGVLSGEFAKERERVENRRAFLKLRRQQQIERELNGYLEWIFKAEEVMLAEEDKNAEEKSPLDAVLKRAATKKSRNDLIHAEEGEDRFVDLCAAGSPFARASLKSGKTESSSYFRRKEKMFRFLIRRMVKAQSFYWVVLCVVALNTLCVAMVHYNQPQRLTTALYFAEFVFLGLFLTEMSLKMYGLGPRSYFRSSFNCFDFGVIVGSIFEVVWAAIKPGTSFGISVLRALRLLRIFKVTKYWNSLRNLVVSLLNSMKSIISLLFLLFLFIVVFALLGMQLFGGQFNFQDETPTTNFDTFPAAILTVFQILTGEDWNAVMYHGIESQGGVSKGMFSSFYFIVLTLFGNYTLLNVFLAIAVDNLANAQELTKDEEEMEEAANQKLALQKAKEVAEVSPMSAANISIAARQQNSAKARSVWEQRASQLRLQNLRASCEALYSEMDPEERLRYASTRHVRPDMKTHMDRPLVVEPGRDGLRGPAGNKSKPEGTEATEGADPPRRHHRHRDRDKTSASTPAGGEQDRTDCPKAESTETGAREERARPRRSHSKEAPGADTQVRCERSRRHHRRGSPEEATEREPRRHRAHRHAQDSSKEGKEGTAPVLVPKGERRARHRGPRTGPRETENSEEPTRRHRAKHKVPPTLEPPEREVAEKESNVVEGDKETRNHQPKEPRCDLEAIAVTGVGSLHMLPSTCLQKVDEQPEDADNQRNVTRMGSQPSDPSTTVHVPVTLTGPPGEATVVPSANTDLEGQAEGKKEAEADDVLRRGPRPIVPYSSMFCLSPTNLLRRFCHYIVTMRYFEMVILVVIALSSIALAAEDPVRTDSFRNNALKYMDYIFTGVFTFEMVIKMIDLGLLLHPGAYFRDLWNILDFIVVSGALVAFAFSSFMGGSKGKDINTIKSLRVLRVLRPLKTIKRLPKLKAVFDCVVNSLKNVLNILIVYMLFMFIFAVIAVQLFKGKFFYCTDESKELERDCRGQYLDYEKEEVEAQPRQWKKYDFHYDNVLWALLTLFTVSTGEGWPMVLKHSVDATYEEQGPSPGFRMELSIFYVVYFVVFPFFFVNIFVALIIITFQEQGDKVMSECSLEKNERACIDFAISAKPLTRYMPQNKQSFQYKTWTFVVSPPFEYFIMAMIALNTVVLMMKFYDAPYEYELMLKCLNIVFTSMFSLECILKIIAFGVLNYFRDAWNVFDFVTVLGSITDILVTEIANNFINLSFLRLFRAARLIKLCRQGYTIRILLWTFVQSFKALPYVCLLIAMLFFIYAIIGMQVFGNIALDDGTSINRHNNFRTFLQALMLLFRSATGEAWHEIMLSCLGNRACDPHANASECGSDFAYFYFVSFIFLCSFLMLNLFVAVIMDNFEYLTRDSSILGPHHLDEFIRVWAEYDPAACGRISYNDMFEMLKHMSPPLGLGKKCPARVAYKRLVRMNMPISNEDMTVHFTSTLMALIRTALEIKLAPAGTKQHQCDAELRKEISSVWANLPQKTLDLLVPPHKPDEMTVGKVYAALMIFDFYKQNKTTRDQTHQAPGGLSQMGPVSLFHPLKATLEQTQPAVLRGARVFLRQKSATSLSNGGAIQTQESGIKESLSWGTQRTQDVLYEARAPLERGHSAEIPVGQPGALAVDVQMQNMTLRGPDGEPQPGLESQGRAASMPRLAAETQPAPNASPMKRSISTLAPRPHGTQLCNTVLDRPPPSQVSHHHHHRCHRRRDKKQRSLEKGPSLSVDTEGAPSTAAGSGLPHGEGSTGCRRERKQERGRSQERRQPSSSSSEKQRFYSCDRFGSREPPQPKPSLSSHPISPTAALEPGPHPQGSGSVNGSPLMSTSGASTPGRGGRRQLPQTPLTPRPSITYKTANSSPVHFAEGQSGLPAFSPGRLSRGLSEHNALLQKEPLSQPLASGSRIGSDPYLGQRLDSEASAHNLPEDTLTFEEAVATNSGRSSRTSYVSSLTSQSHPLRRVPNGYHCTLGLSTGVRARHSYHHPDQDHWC
Chain of D(1A) dopamine receptor (P21728 whole entry): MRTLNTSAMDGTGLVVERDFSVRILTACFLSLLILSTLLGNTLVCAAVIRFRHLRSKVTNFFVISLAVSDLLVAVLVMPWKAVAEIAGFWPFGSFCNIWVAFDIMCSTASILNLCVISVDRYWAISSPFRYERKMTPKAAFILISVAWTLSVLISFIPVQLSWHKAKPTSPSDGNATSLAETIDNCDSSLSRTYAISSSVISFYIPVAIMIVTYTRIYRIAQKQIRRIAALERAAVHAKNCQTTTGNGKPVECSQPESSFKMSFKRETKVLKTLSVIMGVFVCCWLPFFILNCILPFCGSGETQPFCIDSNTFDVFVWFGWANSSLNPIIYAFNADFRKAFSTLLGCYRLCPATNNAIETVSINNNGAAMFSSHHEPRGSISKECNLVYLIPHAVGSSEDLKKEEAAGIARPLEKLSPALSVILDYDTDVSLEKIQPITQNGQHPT

## CC(C)(Oc1ccc(Cl)cc1)C(=O)OCCOC(=O)c1cccnc1 [ETOFIBRATE]
[1]
  AC50: > 30 µM
[2]
  AC50: > 30 µM

## OC(CN1CCCCC1)c1cc(-c2ccccc2)on1 (stereo not given) [PERISOXAL]
D(1A) dopamine receptor
  AC50: > 30 µM
[3]
  AC50: 20.4 µM
[4]
  AC50: 3.86 µM

## CC(=O)Nc1ccc(/C=N/NC(N)=S)cc1 [AMITHIOZONE]
D(1A) dopamine receptor
  AC50: > 30 µM
[3]
  AC50: > 30 µM
[4]
  AC50: > 30 µM

## CSCC[C@H](N)C(=O)O [METHIONINE]
D(1A) dopamine receptor
  AC50: > 30 µM
[3]
  AC50: > 30 µM
[4]
  AC50: > 30 µM

## CCn1c(=O)c2c(nc(/C=C/c3ccc(OC)c(OC)c3)n2C)n(CC)c1=O [ISTRADEFYLLINE]
Histamine H1 receptor [5]
  AC50: > 30 µM
Histamine H1 receptor [6]
  AC50: > 30 µM

## C[C@]12CCC(=O)C=C1[C@@H]1C[C@@H]1[C@H]1[C@@H]3[C@@H]4C[C@@H]4[C@@]4(CCC(=O)O4)[C@@]3(C)CC[C@@H]12 [DROSPIRENONE]
[7]
  AC50: > 30 µM

## COc1cccc2c1C(=O)c1c(O)c3c(c(O)c1C2=O)C[C@@](O)(C(=O)CO)C[C@@H]3O[C@H]1C[C@H](N)[C@H](O)[C@H](C)O1 [DOXORUBICIN]
[8]
  AC50: > 10 µM
[9]
  AC50: > 10 µM
[1]
  AC50: > 30 µM
[2]
  AC50: > 10 µM
[10]
  AC50: > 10 µM

## N=C(N)NC(=O)c1nc(Cl)c(N)nc1N [AMILORIDE]
[8]
  AC50: > 10 µM
[7]
  AC50: 5.63 µM
[9]
  AC50: > 10 µM
[10]
  AC50: > 10 µM
[11]
  AC50: > 30 µM

## CC(C)(C)NCC(O)COc1ccccc1C#N (stereo not given) [BUNITROLOL]
[12]
  AC50: > 30 µM
[13]
  AC50: > 30 µM

## COc1ccc(C(=O)c2ccccc2)c(O)c1 [OXYBENZONE]
[12]
  AC50: > 30 µM
[13]
  AC50: > 30 µM

## C[C@]12C=CC(=O)C=C1CC[C@@H]1[C@@H]2[C@@H](O)C[C@@]2(C)[C@H]1CC[C@]2(O)C(=O)CO [PREDNISOLONE]
[9]
  AC50: > 10 µM
[10]
  AC50: > 10 µM
[11]
  AC50: > 30 µM

## C[C@]12C=CC(=O)C=C1C(Cl)=C[C@@H]1[C@@H]2[C@@H](O)C[C@@]2(C)[C@H]1CC[C@]2(O)C(=O)CO [CLOPREDNOL]
Histamine H1 receptor [5]
  AC50: > 30 µM
[1]
  AC50: > 30 µM
[12]
  AC50: > 30 µM
[2]
  AC50: > 30 µM
Histamine H1 receptor [6]
  AC50: > 30 µM

## C[C@@H](O)[C@H]1C(=O)N2C(C(=O)O)=C(S[C@@H]3CN[C@H](C(=O)Nc4cccc(C(=O)O)c4)C3)[C@H](C)[C@H]12
D(1A) dopamine receptor
  AC50: > 30 µM
[3]
  AC50: > 30 µM
[4]
  AC50: > 30 µM

## Cc1ccc(O)c([C@H](CCN(C(C)C)C(C)C)c2ccccc2)c1 [TOLTERODINE]
[8]
  AC50: > 10 µM
[7]
  AC50: > 10 µM
[9]
  AC50: > 10 µM
[10]
  AC50: > 10 µM
[11]
  AC50: > 30 µM

## CC(=O)OC1CN2CCC1CC2 (stereo not given) [ACECLIDINE]
D(1A) dopamine receptor
  AC50: > 30 µM
[4]
  AC50: > 30 µM

## Oc1cc(Cl)ccc1Oc1ccc(Cl)cc1Cl [TRICLOSAN]
Histamine H1 receptor [5]
  AC50: > 30 µM
[12]
  AC50: > 30 µM
[13]
  AC50: > 30 µM
Histamine H1 receptor [6]
  AC50: > 30 µM
